Measurements reported in patent publication US10259796B2, “Oxaspiro[2.5]octane derivatives and analogs” (Zafgen, Inc., priority 2011, dated 2019).
Where two headings read alike, the source gives them in different places.

Experiments:
MetAP2 enzyme = biological target: T1, MetAP2 enzyme (Mus musculus, UniProt O08663); assay: THX1 N-terminal peptide in mouse testes (MetAP2 inhibition in testes) after 10 days PO 3 mg/kg; format: in vivo; conditions: mice, PO once a day for 10 days, testes taken 24 hours after last dose
T1 construct: from tissue; host or cells: testes of diet-induced obese C57BL/6NTac mice
Procedure: Diet-induced obese mice, C57BL/6NTac mice, were dosed PO once a day for 10 days with 3 mg/kg of compound 201 (fumagillin), 202, 203, 231 and 233. On day 11, 24 hours after the last dose the mice are sacrificed and the testes are dissected out and frozen. The frozen testes are subsequently homogenized and subjected to endoproteinase Glu-C digestion. The resulting digest mixture is analyzed by LC-MS/MS to quantitate the level of the N-terminal peptide of thioredoxin (Thrx), amino acid 1-6. Thioredoxin is a selective substrate of the MetAP2 enzyme and the degree of unprocessed thioredoxin (amino acid 1-6 rather than the processed des-Met thioredoxin amino acid 2-6) is indicative of the level of MetAP2 inhibition in a given tissue.

[1] = Body weight % difference, diet-induced obese mice dosed PO once a day for 10 days with 3 mg/kg; format: in vivo; conditions: diet-induced obese C57BL/6NTac mice
[2] = Mice weight loss, 7 day, 1 mg/kg/day oral gavage, diet-induced obese mice; format: in vivo; conditions: Mus musculus, 168 h, read-out: Mice Wt Loss 7 day % WL 1 mpk
Text: Lean body mass is important to normal function in subjects. Substantial loss of lean body mass is not a desirable consequence of a therapy for an overweight or obese subject. A study is undertaken to analyze weight loss with respect to lean body mass.
Mice are divided into two groups, a diet-induced obese group and a lean group (control). For the diet-induced obese group, C57BL/6NTac mice maintained prior to and during the study on a diet containing 60% fat on a kilocalorie basis are further divided into two groups, fifteen mice per group. Average body weight of these diet-induced obese mice is 40 g at the start of the study. For the lean group, fifteen C57BLI6NTac mice are maintained on a diet containing 4.3% by weight fat prior to and during the study. Average body weight of these lean mice is 33 g at the start of the study. Daily food consumption is also recorded.
Compounds of the invention are administered to one of the diet-induced obese mice groups by oral gavage as a solution in 10% DMSO, at dose of 1 mg/kg/day, 7 days. The other diet-induced obese mice group and the lean mice group are not administered anything.

recombinant human MetAP2 = biological target: T2, recombinant human MetAP2 (Homo sapiens, UniProt P50579); assay: MetAP2 enzyme assay (inhibition of recombinant MetAP2, Met-Gly-Met-Met substrate); format: biochemical; conditions: 50 nM
T2 construct: made in house; host or cells: High Five insect cells (Bac-to-Bac baculovirus)
Procedure: Exemplary procedures for expression and purification of MetAP2 are shown in Griffith et al. (PNAS (1998) 95(26):15183-15188). Briefly, recombinant His-tagged human MetAP2 is expressed by using a Bac-to-Bac baculovirus expression system (GIBCO/BRL). Recombinant baculovirus stocks are generated and amplified as per the manufacturer's instructions. Protein is harvested 36 hr after baculovirus infection of two 15-cm plates of High Five cells.
The cell pellet are weighed and lysed (in 5 ml/g of wet pellet) in pre-chilled lysis buffer [buffer B+1% Nonidet P-40/1 mM phenymethylsulfonyl fluoride (PMSF)/2 μg/ml leupeptin/2 μg/ml aprotinin/1 μg/ml pepstatin]. The lysate is incubated on ice for 10 min and centrifuged at 10,000×g for 10 min. […] The Talon resin is pelleted by centrifugation at 1,200×g for 3 min and washed with 4×10 ml of buffer B. During the final wash, the resin is slurried into a Bio-Rad Econo column. The 6×His-tagged MetAP2 is eluted with 6 ml of 50 mM imidazole in buffer B, and 0.5 ml fractions are collected. The amount and purity of recombinant MetAP2 is analyzed by the absorbance at 280 nm and SDS/PAGE (10% gel). The fractions containing the highest amounts of MetAP2 are pooled and dialyzed against 3 liters of buffer B overnight before storage at 4° C.
An enzyme assay is performed in a 96-well format as described in Griffith et al. (PNAS (1998) 95(26):15183-15188). […] To begin the enzymatic reaction, Met-Gly-Met-Met is added to a final concentration of 4 mM and incubated at 37° C. The reaction is quenched after 20 min by adding EDTA to a concentration of 10 mM. Released methionine is quantitated as described in Ben-Bassat et al. (J Bacteriol (1987) 169:751-757).
IC50 values are calculated and compounds herein are determined to be active inhibitors of MetAP2, with some having nanomolar activities.

[3] = Cell Based Assay (inhibition range)
[4] = diet-induced obese C57BL/6NTac mice, oral gavage, 1 mg/kg/day, 7 days
[5] = 1 hr, read-out: MetAP2 Enzyme Assay 1 hr 50 nM
[6] = 2 hr, read-out: MetAP2 Enzyme Assay 2 hr 50 nM
[7] = 4 hr, read-out: MetAP2 Enzyme Assay 4 hr 50 nM

T2 sequence (P50579 whole entry): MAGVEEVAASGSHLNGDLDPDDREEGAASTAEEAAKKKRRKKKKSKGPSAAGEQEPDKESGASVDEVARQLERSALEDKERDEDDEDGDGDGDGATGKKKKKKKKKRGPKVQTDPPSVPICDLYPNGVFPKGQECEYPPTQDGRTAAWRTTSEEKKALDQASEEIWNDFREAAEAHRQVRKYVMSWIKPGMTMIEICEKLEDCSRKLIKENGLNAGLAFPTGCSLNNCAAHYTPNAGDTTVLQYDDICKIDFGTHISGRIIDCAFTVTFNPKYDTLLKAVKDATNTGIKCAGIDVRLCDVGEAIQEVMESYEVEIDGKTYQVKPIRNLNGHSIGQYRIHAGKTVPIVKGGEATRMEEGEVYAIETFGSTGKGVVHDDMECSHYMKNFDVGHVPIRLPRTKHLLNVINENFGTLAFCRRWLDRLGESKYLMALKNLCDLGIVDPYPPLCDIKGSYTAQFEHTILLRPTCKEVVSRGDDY
T1 sequence (O08663 whole entry): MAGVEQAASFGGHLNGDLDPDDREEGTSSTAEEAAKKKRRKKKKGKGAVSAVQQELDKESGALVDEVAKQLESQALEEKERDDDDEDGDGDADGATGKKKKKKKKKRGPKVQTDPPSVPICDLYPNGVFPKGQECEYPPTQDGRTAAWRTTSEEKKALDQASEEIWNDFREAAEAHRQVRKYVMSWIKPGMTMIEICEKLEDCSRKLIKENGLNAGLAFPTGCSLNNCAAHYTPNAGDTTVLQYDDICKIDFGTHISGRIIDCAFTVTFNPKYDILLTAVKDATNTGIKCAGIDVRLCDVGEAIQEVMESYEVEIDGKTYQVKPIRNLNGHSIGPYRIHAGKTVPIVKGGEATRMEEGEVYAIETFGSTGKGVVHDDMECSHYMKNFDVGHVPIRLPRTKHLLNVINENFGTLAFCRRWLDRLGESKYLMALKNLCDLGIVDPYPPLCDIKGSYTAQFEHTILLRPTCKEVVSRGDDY

| SMILES | inhibition of the enzyme (MetAP2) in the testes, by THX1 N-terminal peptide (MetAP2 enzyme) | weight loss over 10 days of treatment [1] | change in vivo at 1 mg/kg [2, 4] [%] | inhibition at 0.05 µM (recombinant human MetAP2; [5]) [%] | inhibition at 0.05 µM (recombinant human MetAP2; [6]) [%] | inhibition at 0.05 µM (recombinant human MetAP2; [7]) [%] | IC50 ([3]; in uM) [µM] | change in vivo at 1 mg/kg ([2]; po) [%] | IC50 ([3]; cells printed in nM) [µM] |
| --- | --- | --- | --- | --- | --- | --- | --- | --- | --- |
| COC(=O)CCCCCCCCC(=O)O[C@@H]1CC[C@]2(CO2)[C@@H]([C@@]2(C)O[C@@H]2CC=C(C)C)[C@@H]1OC [compound 205] | No inhibition | robust weight loss |  |  |  |  |  |  |  |
| CCCCCCCCCCC(=O)O[C@@H]1CC[C@]2(CO2)[C@@H]([C@@]2(C)O[C@@H]2CC=C(C)C)[C@@H]1OC [compound 216] | No inhibition | robust weight loss |  |  |  |  |  |  |  |
| CO[C@@H]1[C@H](OC(=O)CCCCCCCCC(=O)O)CC[C@]2(CO2)[C@H]1[C@@]1(C)O[C@@H]1CC=C(C)C [compound 206] | No inhibition | robust weight loss |  |  |  |  |  |  |  |
| CO[C@@H]1[C@H](OC(=O)/C=C/C=C/C=C/C=C/C(=O)O)CC[C@]2(CO2)[C@H]1[C@@]1(C)O[C@@H]1CC=C(C)C [compound 201, fumagillin, reference compound] | No inhibition | robust weight loss |  |  |  |  |  |  |  |
| CO[C@@H]1[C@H](OC(=O)CCCCCCCCC(=O)O)CC[C@]2(CO2)[C@H]1[C@@]1(C)O[C@@H]1CCC(C)C [Example 9] |  |  | 3.3 | 12 | 35 | 50 | 0.1 to 1 |  |  |
| CO[C@H]1[C@H]([C@@]2(C)O[C@@H]2CC=C(C)C)[C@]2(CCC1(F)F)CO2 [Example 17] |  |  |  | 29 | 44 | 40 | > 1 | 0.1 |  |
| CO[C@@H]1[C@H](OC(=O)N[C@@H](C(N)=O)C(C)C)CC[C@]2(CO2)[C@H]1[C@@]1(C)O[C@@H]1CC=C(C)C [Example 3] |  |  |  | 62 | 90 | 100 |  | 5 | < 0.01 |
| CCCC/C=C/C[C@H]1O[C@]1(C)[C@H]1[C@H](OC)C(=O)CC[C@]12CO2 [Example 25] |  |  |  | 19 | 40 | 40 |  | 0.1 | 0.01 to 0.1 |
| COC(=O)CCCCCCCCC(=O)O[C@@H]1CC[C@]2(CO2)[C@@H]([C@@]2(C)O[C@@H]2CC=C(C)C)[C@@H]1OC [Example 4] |  |  | 12.5 | 46 | 58 | 94 |  |  | 0.01 to 0.1 |
| CO[C@@H]1[C@H](OC(=O)NCCC2CCCN2C)CC[C@]2(CO2)[C@H]1[C@@]1(C)O[C@@H]1CC=C(C)C (some centres unmarked) [Example 29] |  |  | 5.7 |  |  | 63 |  |  | < 0.01 |
| CO[C@@H]1C(=O)CC[C@]2(CO2)[C@H]1[C@@]1(C)O[C@@H]1CC=C(C)C [Example 8, fumagillin ketone] |  |  |  | 46 | 65 | 93 |  | 11.3 | < 0.01 |
